The target of this assay is T1, TYK2 (Homo sapiens, UniProt P29597).
T1 construct: Degradation of TYK2 in cells was quantitatively measured using Meso Scale Discovery (MSD) technology; endogenous in cells; host or cells: OCI-LY10
Description: TYK2 MSD degradation in OCI-LY10 cells. In kind it is cell-based. As to conditions: TYK2 degradation in OCI-LY10 cells, 4 to 24 hours incubation; for DC50: read-out: TYK2 MSD OCI-LY10 Rel-DC50. In short, it runs like this: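 Cellular TYK2 levels were measured by Meso Scale Discovery sandwich detection in RIPA lysates of OCI-LY10 cells exposed 4 to 24 hours at 37° C to nine 1:3 compound doses starting at 1 to 10 μM final; dose-response fitted by four-parameter regression.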

As a reminder, the DC50 is the concentration at which degradation of the target reaches its halfway point.

T1 sequence (P29597 whole entry): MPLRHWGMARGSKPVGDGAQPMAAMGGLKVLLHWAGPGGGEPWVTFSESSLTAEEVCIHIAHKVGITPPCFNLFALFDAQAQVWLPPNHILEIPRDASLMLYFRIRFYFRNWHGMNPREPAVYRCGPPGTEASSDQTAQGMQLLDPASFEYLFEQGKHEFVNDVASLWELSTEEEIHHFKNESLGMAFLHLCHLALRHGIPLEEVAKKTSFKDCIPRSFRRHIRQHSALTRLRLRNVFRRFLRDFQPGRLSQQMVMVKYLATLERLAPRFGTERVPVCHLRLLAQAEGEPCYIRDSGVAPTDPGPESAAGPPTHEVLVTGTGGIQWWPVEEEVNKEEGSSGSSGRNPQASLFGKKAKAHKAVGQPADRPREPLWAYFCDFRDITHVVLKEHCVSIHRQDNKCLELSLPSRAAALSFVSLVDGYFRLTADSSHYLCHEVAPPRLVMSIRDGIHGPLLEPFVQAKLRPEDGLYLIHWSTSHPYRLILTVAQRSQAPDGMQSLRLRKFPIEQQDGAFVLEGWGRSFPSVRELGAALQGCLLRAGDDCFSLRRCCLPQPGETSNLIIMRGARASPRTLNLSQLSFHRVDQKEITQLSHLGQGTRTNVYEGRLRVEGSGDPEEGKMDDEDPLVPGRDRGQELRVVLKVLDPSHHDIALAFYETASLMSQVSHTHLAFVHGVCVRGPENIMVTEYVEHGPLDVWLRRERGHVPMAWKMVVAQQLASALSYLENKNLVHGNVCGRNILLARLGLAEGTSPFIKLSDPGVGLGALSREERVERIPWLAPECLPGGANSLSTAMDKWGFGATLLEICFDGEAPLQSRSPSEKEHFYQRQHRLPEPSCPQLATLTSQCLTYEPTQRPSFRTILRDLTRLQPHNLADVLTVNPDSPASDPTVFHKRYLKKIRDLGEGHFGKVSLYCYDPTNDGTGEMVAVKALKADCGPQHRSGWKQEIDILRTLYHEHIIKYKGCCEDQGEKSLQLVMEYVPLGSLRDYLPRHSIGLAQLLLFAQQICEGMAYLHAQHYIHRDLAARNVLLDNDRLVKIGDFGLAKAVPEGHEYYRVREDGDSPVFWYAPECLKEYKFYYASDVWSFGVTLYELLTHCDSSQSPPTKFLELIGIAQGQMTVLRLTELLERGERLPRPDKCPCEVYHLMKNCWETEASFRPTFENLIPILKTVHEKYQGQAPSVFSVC

As to `CNc1cc(N2CCc3c(CN4CCC(N5CC6(CCN(C(=O)c7ccc(Cl)c(N8CCC(=O)NC8=O)c7)CC6)C5)C(F)(F)C4)cccc32)nn2c(C(=O)N[C@@H]3C[C@@H]3F)cnc12` (some centres unmarked) [I-840], the “TYK2 MSD OCI-LY10 Dmax %” value is on record as “A (A (>90%))” and the DC50 was under 1 nM.
The like results for `CNc1cc(N2CCc3c(CN4CCC(N5CCC6(CCN(C(=O)c7cc(N8CCC(=O)NC8=O)c(Cl)cc7F)CC6)CC5)C(F)(F)C4)cccc32)nn2c(C(=O)N[C@@H]3C[C@@H]3F)cnc12` (some centres unmarked) [I-841] were, in that order, “A (A (>90%))” and under 1 nM.
The matching figures for `COC1(c2cc(C)cc(-c3cn(C4CCN(CC5CCN(c6ccc(NC7CCC(=O)NC7=O)c(F)c6)CC5)CC4)c4cnc(NC(C)=O)cc34)n2)CCOC1` (centres unmarked) [I-842]: “A (A (>90%))” and under 1 nM.
The matching figures for `CNc1cc(N2CCc3c(CN4CCC(N5CCC6(CCN(C(=O)c7cc(F)c(C)c(N8CCC(=O)NC8=O)c7)CC6)CC5)C(F)(F)C4)cccc32)nn2c(C(=O)N[C@@H]3C[C@@H]3F)cnc12` (some centres unmarked) [I-843]: “A (A (>90%))” and under 1 nM.
On to `CNc1cc(N2CCc3c(CN4CCC(N5CCC6(CCN(Cc7ccc(Cl)c(N8CCC(=O)NC8=O)c7)CC6)CC5)C(F)(F)C4)cccc32)nn2c(C(=O)N[C@@H]3C[C@@H]3F)cnc12` (some centres unmarked) [I-844], for which the “TYK2 MSD OCI-LY10 Dmax %” value is listed as “B (B (90 to >75%))” and the half-maximal degradation concentration (DC50) was under 10 nM.
The matching figures for `CNc1cc(N2CCc3c(CN4CCC(N5CCC6(CCN(C(=O)c7cc(N8CCC(=O)NC8=O)c(C)cc7Cl)CC6)CC5)C(F)(F)C4)cccc32)nn2c(C(=O)N[C@@H]3C[C@@H]3F)cnc12` (some centres unmarked) [I-845]: “A (A (>90%))” and under 1 nM.
The like results for `CNc1cc(N2CCc3c(C#CCN4CCN(C5CCN(C(=O)c6ccc(Cl)c(N7CCC(=O)NC7=O)c6)CC5(F)F)CC4)cccc32)nn2c(C(=O)NC3CC3F)cnc12` (centres unmarked) [I-846] were, in that order, “A (A (>90%))” and under 1 nM.
The like results for `CNc1cc(N2CCc3c(-c4ccc(CN5CCC6(CC5)CN(C(=O)c5ccc(Cl)c(N7CCC(=O)NC7=O)c5)CC6(F)F)cn4)cccc32)nn2c(C(=O)N[C@@H]3C[C@@H]3F)cnc12` [I-847] were, in that order, “A (A (>90%))” and under 1 nM.
Take `COC1(c2cc(-c3ccc(CN4CCC5(CC4)CCN(C(=O)c4ccc(Cl)c(N6CCC(=O)NC6=O)c4)CC5)cn3)cc(-c3cn(C)c4cnc(NC(C)=O)cc34)n2)CCOC1` (centres unmarked) [I-848]: the “TYK2 MSD OCI-LY10 Dmax %” value is on record as “A (A (>90%))” and the DC50 was under 1 nM.
The like results for `CNc1cc(N2CCc3c(-c4ccc(CN5CC(F)(F)C6(CCN(C(=O)c7ccc(Cl)c(N8CCC(=O)NC8=O)c7)CC6)C5)cn4)cccc32)nn2c(C(=O)N[C@@H]3C[C@@H]3F)cnc12` [I-849] were, in that order, “B (B (90 to >75%))” and under 10 nM.
The matching figures for `COC1(c2cc(-c3ccc(CN4CC5(CCN(C(=O)c6ccc(Cl)c(N7CCC(=O)NC7=O)c6)CC5)C4)cn3)cc(-c3cn(C)c4cnc(NC(C)=O)cc34)n2)CCOC1` (centres unmarked) [I-850]: “B (B (90 to >75%))” and under 10 nM.
The matching figures for `CNc1cc(N2CCc3c(-c4ccc(CN5CCC6(CCN(C(=O)c7ccc(Cl)c(N8CCC(=O)NC8=O)c7)CC6)C(F)(F)C5)cn4)cccc32)nn2c(C(=O)NC34CC(C3)C4)cnc12` [I-851]: “C (C (75 to 50%))” and 10 to 100 nM.
For `CNc1cc(N2CCc3c(-c4ccc(CN5CC6(CCN(C(=O)c7ccc(Cl)c(N8CCC(=O)NC8=O)c7)CC6(F)F)C5)cn4)cc(C)cc32)nn2c(C(=O)N[C@@H]3C[C@@H]3F)cnc12` [I-852], the “TYK2 MSD OCI-LY10 Dmax %” value is given as “B (B (90 to >75%))” and the DC50 is under 10 nM.
The like results for `CNc1cc(N2CCc3c(CN4CCC(N5CCC6(CCN(C(=O)c7cc(N8CCC(=O)NC8=O)c(C)cc7F)CC6)CC5)C(F)(F)C4)cccc32)nn2c(C(=O)N[C@@H]3C[C@@H]3F)cnc12` (some centres unmarked) [I-853] were, in that order, “A (A (>90%))” and under 1 nM.
The matching figures for `CNc1cc(N2CCc3c(C#CCN4CCC(N5CCN(C(=O)c6ccc(Cl)c(N7CCC(=O)NC7=O)c6)CC5)C(F)(F)C4)cccc32)nn2c(C(=O)NC3CC3F)cnc12` (centres unmarked) [I-854]: “A (A (>90%))” and under 1 nM.
The matching figures for `CNc1cc(N2CCc3c(CN4CCC(N5CCC6(CC5)CN(C(=O)c5ccc(Cl)c(N7CCC(=O)NC7=O)c5)C6)C(F)(F)C4)cccc32)nn2c(C(=O)N[C@@H]3C[C@@H]3F)cnc12` (some centres unmarked) [I-855]: “A (A (>90%))” and under 1 nM.
In the case of `CNc1cc(N2CCc3c(-c4ccc(CN5CC6(CCN(C(=O)c7ccc(Cl)c(N8CCC(=O)NC8=O)c7)CC6(F)F)C5)cn4)cc(C(F)(F)F)cc32)nn2c(C(=O)N[C@@H]3C[C@@H]3F)cnc12` [I-856], the “TYK2 MSD OCI-LY10 Dmax %” value is “C (C (75 to 50%))” and the DC50 was 10 to 100 nM.
The matching figures for `CNc1cc(N2CCc3c(CN4CCN(C5CCC6(CC5)CCN(C(=O)c5ccc(Cl)c(N7CCC(=O)NC7=O)c5)CC6)CC4)cccc32)nn2c(C(=O)N[C@@H]3C[C@@H]3F)cnc12` [I-857]: “A (A (>90%))” and under 1 nM.
The matching figures for `COC1(c2cc(C)cc(-c3cn(C4CCN(CC5CCN(C(=O)c6ccc(Cl)c(N7CCC(=O)NC7=O)c6)CC5)CC4)c4cnc(NC(C)=O)cc34)n2)CCOC1` (centres unmarked) [I-858]: “D (D (<50%))” and over 100 nM.
The like results for `CNc1cc(N2CCc3c(-c4ccc(CN5CC6(CCN(C(=O)c7ccc(Cl)c(N8CCC(=O)NC8=O)c7)CC6(F)F)C5)cn4)cc(OC)cc32)nn2c(C(=O)N[C@@H]3C[C@@H]3F)cnc12` [I-859] were, in that order, “B (B (90 to >75%))” and under 10 nM.
For `CNc1cc(N2CCc3c(-c4ccc(N5CCC6(CCN(Cc7ccc(N8CCC(=O)NC8=O)c(Cl)c7)CC6)CC5)cn4)cccc32)nn2c(C(=O)N[C@@H]3C[C@@H]3F)cnc12` [I-870], the “TYK2 MSD OCI-LY10 Dmax %” value is “C (C (75 to 50%))” and the DC50 was in the range of 10 to 100 nM.
The like results for `CNc1cc(-c2ccc(-c3ccc(CN4CC5(CCN(C(=O)c6ccc(Cl)c(N7CCC(=O)NC7=O)c6)CC5(F)F)C4)cn3)cc2)nn2c(C(=O)N[C@@H]3C[C@@H]3F)cnc12` [I-880] were, in that order, “B (B (90 to >75%))” and under 10 nM.
The matching figures for `CNc1cc(N2CCc3c(-c4ccc(N5CC6(CCN(Cc7ccc(N8CCC(=O)NC8=O)c(Cl)c7)CC6)C5)cn4)cccc32)nn2c(C(=O)N[C@@H]3C[C@@H]3F)cnc12` [I-881]: “B (B (90 to >75%))” and under 10 nM.
The matching figures for `CNc1cc(-c2ccc(N3CCC(CN4CC5(CCN(C(=O)c6ccc(Cl)c(N7CCC(=O)NC7=O)c6)CC5(F)F)C4)CC3)cc2)nn2c(C(=O)N[C@@H]3C[C@@H]3F)cnc12` [I-882]: “D (D (<50%))” and over 100 nM.
As for `CNc1cc(N2CCc3c(-c4ccc(CN5CC6(CCN(C(=O)c7ccc(Cl)c(N8CCC(=O)NC8=O)c7)CC6(F)F)C5)cn4)cccc32)nn2c(C(=O)N[C@H]3C[C@@H](F)C3)cnc12` [I-883], the “TYK2 MSD OCI-LY10 Dmax %” value is on record as “A (A (>90%))” and the DC50 is under 1 nM.
The like results for `CNc1cc(N2CCc3c(-c4ccc(CN5CC6(CCC(=Cc7ccc(Cl)c(N8CCC(=O)NC8=O)c7)CC6)C5)cn4)cccc32)nn2c(C(=O)N[C@@H]3C[C@@H]3F)cnc12` [I-884] were, in that order, “C (C (75 to 50%))” and 10 to 100 nM.
The matching figures for `CNc1cc(N2CCc3c(-c4ccc(N5CCC6(CCN(C(=O)c7ccc(N8CCC(=O)NC8=O)c(Cl)c7)CC6)CC5)cn4)cccc32)nn2c(C(=O)N[C@@H]3C[C@@H]3F)cnc12` [I-885]: “C (C (75 to 50%))” and 10 to 100 nM.
The matching figures for `CNc1cc(N2CCc3c(-c4ccc(CN5CC6(CCN(C(=O)c7ccc(Cl)c(N8CCC(=O)NC8=O)c7)CC6(F)F)C5)cn4)cccc32)nn2c(C(=O)N[C@H]3C[C@H](OC)C3)cnc12` [I-886]: “B (B (90 to >75%))” and under 10 nM.
`CNc1cc(N2CCc3c(N4CCN(CCC5CC6(CCN(C(=O)c7ccc(Cl)c(N8CCC(=O)NC8=O)c7)CC6)C5)CC4)cccc32)nn2c(C(=O)N[C@@H]3C[C@@H]3F)cnc12` [I-887]: the “TYK2 MSD OCI-LY10 Dmax %” value was “B (B (90 to >75%))” and the DC50 was under 10 nM.
Regarding `CNc1cc(N2CCc3c(-c4ccc(CN5CC6(CCN(C(=O)c7ccc(Cl)c(N8CCC(=O)NC8=O)c7)CC6(F)F)C5)cn4)cccc32)nn2c(C(=O)N[C@H]3C[C@H](C)C3)cnc12` [I-888], the “TYK2 MSD OCI-LY10 Dmax %” value is “B (B (90 to >75%))” and the DC50 is under 10 nM.
The like results for `CNc1cc(-c2ccc(N3CCN(CC4CC5(CCN(C(=O)c6ccc(Cl)c(N7CCC(=O)NC7=O)c6)CC5)C4)CC3)cc2)nn2c(C(=O)N[C@@H]3C[C@@H]3F)cnc12` [I-889] were, in that order, “D (D (<50%))” and over 100 nM.
For the molecule `CNc1cc(N2CCc3c(CN4CCC(N5CCN(C(=O)c6ccc(Cl)c(N7CCC(=O)NC7=O)c6)CC5)C(F)(F)C4)cccc32)nn2c(C(=O)N[C@@H]3C[C@@H]3F)cnc12` (some centres unmarked) [I-890], the “TYK2 MSD OCI-LY10 Dmax %” value is “B (B (90 to >75%))” and the DC50 is under 10 nM.
For the molecule `CNc1cc(N2CCc3c(CN4CCC(CN5CCN(C(=O)c6ccc(Cl)c(N7CCC(=O)NC7=O)c6)CC5)CC4)cccc32)nn2c(C(=O)N[C@@H]3C[C@@H]3F)cnc12` [I-891], the “TYK2 MSD OCI-LY10 Dmax %” value is “D (D (<50%))” and the DC50 is over 100 nM.
The like results for `CNc1cc(N2CCc3c(-c4ccc(N5CC6(CCN(C(=O)c7ccc(N8CCC(=O)NC8=O)c(Cl)c7)CC6)C5)cn4)cccc32)nn2c(C(=O)N[C@@H]3C[C@@H]3F)cnc12` [I-892] were, in that order, “B (B (90 to >75%))” and under 10 nM.

For the origin of these results see patent US20260125400A1, “TYK2 DEGRADERS AND USES THEREOF” (Kymera Therapeutics, Inc., priority 2023, published 2026).
